Experimental data from patent US20110195924A1, “Methods of Inhibiting the Interaction Between S100P and the Receptor for Advanced Glycation End-Products” (priority 2008, published 2011).

Legend:
S100P and RAGE = target: T1, S100P and RAGE (Homo sapiens, UniProt P25815); experiment: Co-immunoprecipitation of S100P and RAGE from BxPC-3 cell lysates; type: binding; details: cromolyn 100 μM
T1 construct: endogenous in cells; host or cells: BxPC-3 cell lysate
T1 sequence (P25815 1-95): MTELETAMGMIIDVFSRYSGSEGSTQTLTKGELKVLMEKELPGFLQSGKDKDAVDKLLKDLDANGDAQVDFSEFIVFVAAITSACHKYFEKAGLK
Experimental: Receptor for advanced glycation end products (RAGE) was identified in the immunoprecipitates by immunoblotting with a goat polyclonal anti-RAGE antibody and anti-S100P as an internal control. In the lower panel, one representative blot and densitometric analysis (means and 95% confidence intervals [CIs]) of three independent experiments is shown. *P<0.001, versus IP α-S100P without cromolyn.
For co-immunoprecipitation experiments, BxPC-3 cell lysates were incubated in the absence or presence of cromolyn (100 μM) at 4° C. overnight. S100P was immunoprecipitated using a mouse monoclonal anti-S100P antibody (Transduction Laboratories, San Diego, Calif.) for 6 hours at 4° C. and IgG-immobilized beads (Pierce Biotechnology, Inc. Rockford, Ill.). Antibody-associated proteins were electrophoresed on 10% polyacrylamide gels and electrophoretically transferred to nitrocellulose membranes. Membranes were blocked in PBS/5% milk overnight at 4° C. RAGE was detected using a goat polyclonal anti-RAGE antibody (1:200, Santa Cruz, Santa Cruz, Calif.), and S100P was detected using a goat polyclonal anti-S100P antibody (1:50, R & D systems, Minneapolis, Minn.) by immunoblotting as described in Arumugam, et al., S100P stimulates cell proliferation and survival via receptor for activated glycation end products (RAGE); J. Biol. Chem. 2004 Feb. 13; 279(7):5059-65. Briefly, membranes were incubated in primary antibody for 1 hour at room temperature followed by incubation with horseradish peroxidase-labeled secondary antibody for 30 minutes at room temperature. After a thorough wash in TBS-T buffer (1M Tris-HCL pH 8.3, 3M NaCl, 0.1% Tween-20), antibody-protein complexes were detected by using a chemiluminescent substrate (GE Healthcare Bio-Sciences Corp., Piscataway, N.J.). The intensity of the band was estimated (as density units) using densitometry (GS-250 Molecular Imaging System, Bio-Rad Laboratories, Richmond, Calif.). The experiment was repeated three times. […]

MPanc-96 cells = experiment: MPanc-96 cell apoptosis by flow cytometry, alone or with gemcitabine; type: cell-based, Human; details: alone and in conjunction with gemcitabine 10 μM; 100 and 1000 nM; 72 hours
Experimental: FIG. 11 compares the effects of cromolyn and C5 alone and in combination with gemcitabine on MPanc-96 cell apoptosis. MPanc-96 cells were treated with cromolyn or C5 (100 and 1000 nM) with (+) or without (−) gemcitabine (10 μM). Apoptosis was analyzed after 72 hours by flow cytometry.

BxPC-3 cells = experiment: BxPC-3 matrigel invasion assay; type: cell-based; details: 24 hours; for cells invaded, mean: 0 μM 19.3%
Experimental: FIGS. 2A-2D show the effect of cromolyn on pancreatic cancer cell invasion. Panc-1 and BxPC-3 cells were plated in Bio-coat matrigel and control chambers and cultured in serum-free culture media. After 24 hours non-invaded cells in the upper chamber were removed, and cells that invaded onto the lower surface of the membrane were counted from five adjacent fields. […] Data are expressed as the percent invasion through the matrigel matrix and membrane relative to migration through the control membrane. Means and 95% confidence intervals from three independent experiments performed in triplicate are shown. Two-tailed two-sample (unpaired) Student's t-tests were used to determine P values. Panc-1 and BxPC-3 cells were seeded in BIOCOAT matrigel invasion chambers and in control chambers without matrigel (Becton-Dickinson, Bedford, Mass.) according to the manufacturer's protocol. Panc-1 cells were seeded with S100P (100 nM) with or without cromolyn (100 μM), and BxPC-3 cells were seeded with or without cromolyn (1-100 μM). Briefly, 2.0×10^5 cells in 300 μL top solution (serum-free media) were added to each chamber and allowed to invade matrigel for 24 hours at 37° C. in a 5% CO2 atmosphere. The non-invading cells on the upper surface of membrane were removed from the chambers with a cotton swab, and the invading cells on the lower surface of the membrane were fixed and stained using a Diff-Quick stain kit (Becton Dickinson, Bedford, Mass.). After two washes with water, the chambers were allowed to air dry. The numbers of invading cells in five adjacent microscope fields per membrane were counted at 20× magnification to obtain the average number of cells per field. Data are expressed as the percent invasion through the matrigel matrix and membrane relative to the migration through the control membrane. The assays were performed three times.

NFκB activity = experiment: S100P stimulated NFκB luciferase reporter in MPanc-96 cells; type: cell-based, Human; details: S100P 100 nM, compound 1 μM, 5 hours
Experimental: MPanc-96 pancreatic cancer cell lines stably expressing an NFκB luciferase reporter were examined for the effects of S100P, cromolyn and C5. Cells were plated at 5.0×10^3 cells/well, treated for 5 hours with 100 nM of S100P, with or without cromolyn and C5 (1 μM), and activity of a luciferase gene driven by the NFkB promoter was analyzed. P=0.05 C5 versus cromolyn. Two-tailed two-sample (unpaired) Student's t-tests were used to determine P values.

co-immunoprecipitation of S100P and RAGE, difference versus control (S100P and RAGE): 25640 density units
total amount of S100P immunoprecipitated (S100P and RAGE): no effect
co-immunoprecipitation of S100P and RAGE, mean (S100P and RAGE; control mean 34040): 8410 density units
SMILES: O=C(O)c1cc(=O)c2c(OCC(O)COc3cccc4oc(C(=O)O)cc(=O)c34)cccc2o1 [cromolyn, disodium 1,3-bis[(2′-carboxylatochromon-5′-yl)oxy]-2-hydroxypropane]
MPanc-96 cell viability (MPanc-96 cells): inhibit
cells invaded, difference versus 0 μM (BxPC-3 cells; cromolyn 10 μM): 10.0%
cells invaded, mean (BxPC-3 cells; cromolyn 10 μM): 9.3%
cells invaded, difference versus 0 μM (BxPC-3 cells; cromolyn 100 μM): 11.7%
cells invaded, mean (BxPC-3 cells; cromolyn 100 μM): 7.7%
NFκB activity in pancreatic cancer cells in vitro (NFκB activity): inhibit
